How the values were obtained:
Integrin alpha-V/beta-1 = Integrin alpha-V/beta-1 (Homo sapiens, UniProt P05556+P06756); test: Inhibition of recombinant human Integrin alphaVbeta1 using TMB as substrate incubated for 2 hrs in presence of fibronectin by ELISA; format: protein-complex assay
Integrin alpha-V/beta-5 = Integrin alpha-V/beta-5 (Homo sapiens, UniProt P06756+P18084); test: Inhibition of recombinant human Integrin alphaVbeta5 using TMB as substrate incubated for 2 hrs in presence of fibronectin by ELISA; format: protein-complex assay
Integrin alpha-V/beta-6 = Integrin alpha-V/beta-6 (Homo sapiens, UniProt P06756+P18564); test: Inhibition of recombinant human Integrin alphaVbeta6 using TMB as substrate incubated for 2 hrs in presence of LAP by ELISA; format: protein-complex assay
Integrin alpha-5/beta-1 = Integrin alpha-5/beta-1 (Homo sapiens, UniProt P05556+P08648); test: Inhibition of recombinant human Integrin alpha5beta1 using TMB as substrate incubated for 2 hrs in presence of fibronectin by ELISA; format: protein-complex assay
Integrin alpha-V/beta-8 = Integrin alpha-V/beta-8 (Homo sapiens, UniProt P06756+P26012); test: Inhibition of recombinant human Integrin alphaVbeta8 using TMB as substrate incubated for 2 hrs in presence of LAP by ELISA; format: protein-complex assay
Integrin alpha-V/beta-3 = Integrin alpha-V/beta-3 (Homo sapiens, UniProt P05106+P06756); test: Inhibition of recombinant human Integrin alphaVbeta3 using TMB as substrate incubated for 2 hrs in presence of vitronectin by ELISA; format: protein-complex assay
Integrin alpha-4/beta-1 = Integrin alpha-4/beta-1 (Homo sapiens, UniProt P05556+P13612); test: Inhibition of recombinant human Integrin alpha4beta1 using TMB as substrate incubated for 2 hrs in presence of VCAM-1 by ELISA; format: protein-complex assay
[1] = Apparent permeability across basolateral to apical side in dog MDCK-MDR1 cells incubated for 60 mins by HPLC analysis; format: ADME, cell-based, Canis lupus familiaris
[2] = Apparent permeability across apical to basolateral side in dog MDCK-MDR1 cells incubated for 60 mins by HPLC analysis; format: ADME, cell-based, Canis lupus familiaris

Integrin alpha-V/beta-3, sequence (P05106 27-788 limits assumed): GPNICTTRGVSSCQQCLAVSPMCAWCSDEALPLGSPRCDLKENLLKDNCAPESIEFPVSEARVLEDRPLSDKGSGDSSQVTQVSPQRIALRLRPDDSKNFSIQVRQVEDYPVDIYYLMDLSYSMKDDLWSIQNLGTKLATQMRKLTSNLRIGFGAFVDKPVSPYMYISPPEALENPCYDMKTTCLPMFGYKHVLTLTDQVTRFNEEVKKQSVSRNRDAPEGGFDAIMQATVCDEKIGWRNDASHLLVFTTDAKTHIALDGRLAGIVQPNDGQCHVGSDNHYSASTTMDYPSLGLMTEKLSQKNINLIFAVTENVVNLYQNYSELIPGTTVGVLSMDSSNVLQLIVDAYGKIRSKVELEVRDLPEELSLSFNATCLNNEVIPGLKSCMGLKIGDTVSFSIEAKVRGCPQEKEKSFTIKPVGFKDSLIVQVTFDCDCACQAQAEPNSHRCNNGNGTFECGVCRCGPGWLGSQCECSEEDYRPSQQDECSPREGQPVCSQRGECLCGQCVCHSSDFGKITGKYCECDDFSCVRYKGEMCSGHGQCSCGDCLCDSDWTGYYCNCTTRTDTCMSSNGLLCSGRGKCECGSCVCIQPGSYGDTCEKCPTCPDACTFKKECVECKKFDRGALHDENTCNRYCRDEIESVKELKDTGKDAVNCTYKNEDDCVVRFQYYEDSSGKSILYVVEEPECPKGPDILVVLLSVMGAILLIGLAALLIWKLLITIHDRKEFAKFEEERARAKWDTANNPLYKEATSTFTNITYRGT
Integrin alpha-V/beta-3, sequence (P06756 31-889 limits assumed): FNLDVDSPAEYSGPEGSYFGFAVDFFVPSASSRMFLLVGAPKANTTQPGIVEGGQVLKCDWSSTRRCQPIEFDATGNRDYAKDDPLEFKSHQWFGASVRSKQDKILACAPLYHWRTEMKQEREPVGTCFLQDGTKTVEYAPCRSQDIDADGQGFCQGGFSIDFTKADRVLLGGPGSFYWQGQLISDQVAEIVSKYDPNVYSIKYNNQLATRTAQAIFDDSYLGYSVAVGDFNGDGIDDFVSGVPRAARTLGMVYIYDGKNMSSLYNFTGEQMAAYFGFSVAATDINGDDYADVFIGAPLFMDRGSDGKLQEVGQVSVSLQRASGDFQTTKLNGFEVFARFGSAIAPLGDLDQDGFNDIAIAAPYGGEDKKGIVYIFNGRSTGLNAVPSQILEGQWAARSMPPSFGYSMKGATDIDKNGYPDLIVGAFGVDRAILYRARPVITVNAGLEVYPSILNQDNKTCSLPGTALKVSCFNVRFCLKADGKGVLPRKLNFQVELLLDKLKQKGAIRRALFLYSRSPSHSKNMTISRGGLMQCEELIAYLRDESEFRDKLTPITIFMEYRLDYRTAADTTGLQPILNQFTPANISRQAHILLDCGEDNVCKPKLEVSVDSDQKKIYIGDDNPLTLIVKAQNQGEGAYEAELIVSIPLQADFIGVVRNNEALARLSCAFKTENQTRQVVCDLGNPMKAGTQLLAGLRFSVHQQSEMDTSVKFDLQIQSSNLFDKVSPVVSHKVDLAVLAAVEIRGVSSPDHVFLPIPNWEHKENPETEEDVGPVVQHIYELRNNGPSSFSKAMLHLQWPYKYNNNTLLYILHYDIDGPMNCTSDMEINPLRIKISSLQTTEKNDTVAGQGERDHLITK
Integrin alpha-V/beta-3, sequence (P06756 891-1048 limits assumed): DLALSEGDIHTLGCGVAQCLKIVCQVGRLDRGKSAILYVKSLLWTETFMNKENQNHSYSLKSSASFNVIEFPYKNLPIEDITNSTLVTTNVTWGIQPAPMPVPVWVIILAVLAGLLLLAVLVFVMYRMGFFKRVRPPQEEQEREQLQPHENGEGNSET
Integrin alpha-5/beta-1, sequence (P05556 21-798 limits assumed): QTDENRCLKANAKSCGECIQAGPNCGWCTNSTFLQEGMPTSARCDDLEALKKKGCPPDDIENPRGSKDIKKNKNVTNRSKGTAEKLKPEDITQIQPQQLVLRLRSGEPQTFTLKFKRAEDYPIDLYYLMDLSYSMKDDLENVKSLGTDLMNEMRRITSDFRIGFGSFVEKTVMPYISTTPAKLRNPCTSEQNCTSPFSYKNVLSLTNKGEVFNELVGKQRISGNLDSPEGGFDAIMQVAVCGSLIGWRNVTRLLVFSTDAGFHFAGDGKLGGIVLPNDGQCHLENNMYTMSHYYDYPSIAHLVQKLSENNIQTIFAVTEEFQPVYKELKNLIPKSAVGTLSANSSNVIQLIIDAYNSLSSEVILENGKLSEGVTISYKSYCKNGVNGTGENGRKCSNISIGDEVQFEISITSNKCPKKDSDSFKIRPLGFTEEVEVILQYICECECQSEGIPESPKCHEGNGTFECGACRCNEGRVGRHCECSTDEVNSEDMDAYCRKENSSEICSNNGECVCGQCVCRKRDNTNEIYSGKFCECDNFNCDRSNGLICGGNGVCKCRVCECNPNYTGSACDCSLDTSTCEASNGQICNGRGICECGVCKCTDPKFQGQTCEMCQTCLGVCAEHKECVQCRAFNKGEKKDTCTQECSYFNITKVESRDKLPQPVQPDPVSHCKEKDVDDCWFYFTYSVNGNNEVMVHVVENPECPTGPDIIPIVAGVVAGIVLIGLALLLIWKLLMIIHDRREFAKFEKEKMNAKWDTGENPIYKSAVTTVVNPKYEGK
Integrin alpha-5/beta-1, sequence (P08648 42-894 limits assumed): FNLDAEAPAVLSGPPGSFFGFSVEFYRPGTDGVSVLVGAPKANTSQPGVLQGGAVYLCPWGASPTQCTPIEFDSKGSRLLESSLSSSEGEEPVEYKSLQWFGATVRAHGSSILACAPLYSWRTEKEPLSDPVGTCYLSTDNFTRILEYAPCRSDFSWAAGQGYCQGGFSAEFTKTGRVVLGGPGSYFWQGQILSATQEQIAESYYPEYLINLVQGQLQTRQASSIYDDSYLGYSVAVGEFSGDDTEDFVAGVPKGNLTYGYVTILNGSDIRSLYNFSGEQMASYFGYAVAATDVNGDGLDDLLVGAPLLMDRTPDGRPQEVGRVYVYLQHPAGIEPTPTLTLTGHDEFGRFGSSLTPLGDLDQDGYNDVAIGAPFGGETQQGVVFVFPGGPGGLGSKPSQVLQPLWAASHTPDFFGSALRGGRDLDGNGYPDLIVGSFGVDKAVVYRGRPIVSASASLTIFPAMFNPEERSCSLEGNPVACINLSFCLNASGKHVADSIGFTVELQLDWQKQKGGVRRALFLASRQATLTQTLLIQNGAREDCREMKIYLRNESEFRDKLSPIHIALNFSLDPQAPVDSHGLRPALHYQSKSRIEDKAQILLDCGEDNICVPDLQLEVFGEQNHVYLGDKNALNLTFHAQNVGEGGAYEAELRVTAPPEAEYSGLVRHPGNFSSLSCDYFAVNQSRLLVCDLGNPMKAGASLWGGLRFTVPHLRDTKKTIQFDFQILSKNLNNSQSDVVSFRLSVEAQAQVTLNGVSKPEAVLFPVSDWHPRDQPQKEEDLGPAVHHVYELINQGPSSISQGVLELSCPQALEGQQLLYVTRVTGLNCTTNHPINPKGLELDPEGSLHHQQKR
Integrin alpha-5/beta-1, sequence (P08648 895-1049 limits assumed): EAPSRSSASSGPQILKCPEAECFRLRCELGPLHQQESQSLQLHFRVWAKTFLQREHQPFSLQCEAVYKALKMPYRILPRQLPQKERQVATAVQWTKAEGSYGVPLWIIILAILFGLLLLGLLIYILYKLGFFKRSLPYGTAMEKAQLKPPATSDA
Integrin alpha-V/beta-1, sequence (P05556 21-798 limits assumed): as the sequence (P05556 21-798 limits assumed) above
Integrin alpha-V/beta-1, sequence (P06756 31-889 limits assumed): as the sequence (P06756 31-889 limits assumed) above
Integrin alpha-V/beta-1, sequence (P06756 891-1048 limits assumed): as the sequence (P06756 891-1048 limits assumed) above
Integrin alpha-V/beta-8, sequence (P06756 31-889 limits assumed): as the sequence (P06756 31-889 limits assumed) above
Integrin alpha-V/beta-8, sequence (P06756 891-1048 limits assumed): as the sequence (P06756 891-1048 limits assumed) above
Integrin alpha-V/beta-8, sequence (P26012 43-769 limits assumed): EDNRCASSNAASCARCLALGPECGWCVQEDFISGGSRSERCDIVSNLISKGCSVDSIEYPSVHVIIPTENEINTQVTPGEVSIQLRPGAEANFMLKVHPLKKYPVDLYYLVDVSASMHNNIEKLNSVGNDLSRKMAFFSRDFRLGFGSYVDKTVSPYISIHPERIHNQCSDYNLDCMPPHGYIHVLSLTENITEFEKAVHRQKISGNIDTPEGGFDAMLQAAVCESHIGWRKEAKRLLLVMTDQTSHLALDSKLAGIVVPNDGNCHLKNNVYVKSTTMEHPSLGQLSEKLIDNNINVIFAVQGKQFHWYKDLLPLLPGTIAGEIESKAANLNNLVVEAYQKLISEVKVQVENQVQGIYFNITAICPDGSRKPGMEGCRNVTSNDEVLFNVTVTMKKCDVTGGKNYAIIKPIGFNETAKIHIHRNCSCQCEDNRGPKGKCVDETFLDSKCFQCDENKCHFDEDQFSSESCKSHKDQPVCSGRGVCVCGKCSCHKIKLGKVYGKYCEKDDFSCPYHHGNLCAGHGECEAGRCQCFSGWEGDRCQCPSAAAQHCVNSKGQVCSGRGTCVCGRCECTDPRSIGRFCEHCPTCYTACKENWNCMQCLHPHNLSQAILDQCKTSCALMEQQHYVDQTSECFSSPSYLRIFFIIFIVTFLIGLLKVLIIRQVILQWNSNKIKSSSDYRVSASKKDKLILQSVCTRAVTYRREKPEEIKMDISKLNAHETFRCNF

Row | SMILES | IC50 (Integrin alpha-V/beta-1) | IC50 (Integrin alpha-V/beta-5) | IC50 (Integrin alpha-V/beta-6) | IC50 (Integrin alpha-5/beta-1) | IC50 (Integrin alpha-V/beta-8) | IC50 (Integrin alpha-V/beta-3) | IC50 (Integrin alpha-4/beta-1) | Papp B→A at 1 h [1] | Papp A→B at 1 h [2]
1 | Cc1nc2ccccc2n1CC(=O)NC[C@H](NC(=O)c1ccccc1Cl)C(=O)O | > 10 µM | – | – | – | – | – | – | – | –
2 | O=C(NC(Cc1ccccc1)C(=O)O)c1ccc(Cl)cc1Cl (stereo not drawn) | 5.01 µM | > 31.6 µM | > 31.6 µM | > 31.6 µM | > 31.6 µM | > 31.6 µM | – | – | –
3 | O=C(Cn1cnc2ccccc21)NC[C@H](NC(=O)c1ccccc1Cl)C(=O)O | > 10 µM | – | – | – | – | – | – | – | –
4 | O=C(NC(CNc1ccccc1)C(=O)O)c1c(Cl)cccc1Cl (stereo not drawn) | 0.2 µM | > 10 µM | > 10 µM | > 10 µM | > 10 µM | > 10 µM | – | – | –
5 | O=C(Cn1c(=O)[nH]c2ccccc21)NC[C@H](NC(=O)c1c(Cl)cccc1Cl)C(=O)O | 0.02 µM | > 10 µM | > 10 µM | 1.26 µM | > 10 µM | > 10 µM | 2 µM | – | –
6 | O=C(CCCCc1ccc2c(n1)NCCC2)NCC(NC(=O)c1c(Cl)cccc1Cl)C(=O)O (racemic) | 0.0002 µM | – | < 0.000158 µM | – | < 0.000158 µM | 0.001 µM | 3.16 µM | – | –
7 | O=C(CN1Cc2ccccc2NC1=O)NC[C@H](NC(=O)c1ccccc1Cl)C(=O)O | 0.398 µM | – | – | – | – | – | – | – | –
8 | O=C(Cn1c(=O)[nH]c2ncccc21)NC[C@H](NC(=O)c1c(F)cc(-c2ccccc2)cc1Cl)C(=O)O | 0.0316 µM | > 10 µM | > 10 µM | 0.631 µM | 6.31 µM | > 10 µM | > 10 µM | – | –

The next lines start with the values.

Row | IC50 (Integrin alpha-V/beta-1) | IC50 (Integrin alpha-V/beta-5) | IC50 (Integrin alpha-V/beta-6) | IC50 (Integrin alpha-5/beta-1) | IC50 (Integrin alpha-V/beta-8) | IC50 (Integrin alpha-V/beta-3) | IC50 (Integrin alpha-4/beta-1) | Papp B→A at 1 h [1] | Papp A→B at 1 h [2] | SMILES
9 | 0.00398 µM | > 10 µM | > 10 µM | 0.398 µM | 6.31 µM | > 10 µM | 3.16 µM | – | – | O=C(Cn1c(=O)[nH]c2ncccc21)NC[C@H](NC(=O)c1c(Cl)cccc1Cl)C(=O)O
10 | 0.0794 µM | – | – | – | – | – | – | 0.3 ×10⁻⁶ cm/s | 0.4 ×10⁻⁶ cm/s | Cc1cnc2[nH]c(=O)n(CC(=O)NC[C@H](NC(=O)c3c(Cl)ccc(C)c3F)C(=O)O)c2c1
11 | 0.01 µM | > 10 µM | > 10 µM | 2.51 µM | > 10 µM | > 10 µM | 5.01 µM | – | – | Cc1cc(C#N)cc(C)c1C(=O)N[C@@H](CNC(=O)Cn1c(=O)[nH]c2ncccc21)C(=O)O
12 | 0.0126 µM | > 10 µM | 0.501 µM | 0.631 µM | > 10 µM | > 10 µM | 3.16 µM | – | – | O=C(Cn1c(=O)[nH]c2ncccc21)NC[C@H](NC(=O)c1ccccc1Cl)C(=O)O
